Values after ≈ are worked out from the molar mass of the structure shown.
Assays:
[1] = test system: L 1210 tumor cells; test: Proliferation experiment (MTT, 72 hours); assay type: cell-based; settings: Mus musculus, L1210, L 1210, 72 hours, 4 experiments, deviation less than 15%
Method: L 1210 tumor cells at the exponential growth phase (5×10^3 cells/ml, Roswell Park Memorial Institute (RPMI) medium) were incubated in a microtiter plate with […] for a period of 72 hours at 37° C., 5% of CO2 and 95% relative atmospheric humidity and various concentrations of the test substances. After 65 hours, 50 μl of [3-(4,5-dimethylthiazol-2-yl)-2,5-diphenyltetrazolium bromide](MTT) (2.5 mg/ml of MTT in phosphate buffer saline (PBS)) were added. The MTT was reduced by living cells into the red, water-insoluble dyestuff formazan. After a further 7 hours, the supernatant medium was carefully removed. Formazan was dissolved by adding 100 μl of dimethyl sulfoxide per recess and subsequent shaking gently. The extinction of each recess was determined using a Multisan 340 CC photometer (Messrs. Flow) at 492 nm. The results were determined from the extinction ratio of cells with test substance to cells without test substance.
(§1) In all cases, the experiments were carried out 4 times. The deviation in the results was less than 15%.

[2] = test system: L 1210 leukemia cells; test: Soft-agar assay, continuous incubation (Hamburger and Salmon); assay type: cell-based; settings: Mus musculus, L1210; L 1210, continuous incubation 5 to 7 days; 4 experiments, deviation less than 15%
Method: (§2) The experiment was carried out in accordance with the process of Hamburger and Salmon [New Engl. J. Med. 298, 1321-1327 (1978)]. The medium was replaced by McCoy 5A, and the number of cells was reduced to 5×10^2 cells/plate.
A continuous incubation of the cells with various concentrations of the test substance from Examples 4 and 5 was carried out. The compounds to be tested were applied to the agar plates before plating-out the cell cultures. The cell cultures then grew for 5 to 7 days in the incubator in an atmosphere of 5% of CO2, 20% of O2 and 95% relative atmospheric humidity at 37° C. After this time, the number of cell colonies having a diameter from 60 μm was determined (in %) relative to the number of cell colonies which had grown in comparison without test substance.
(§3) The IC50 value for continuous and 1-hour incubation was determined from the dose/action curve.
as §1

[3] = test system: Gram-positive and Gram-negative bacteria; test: plate-agar diffusion test in vitro; assay type: cell-based; settings: 10 μl/test circle, 6 mm diameter
[4] = test system: human and animal tumor cells; test: tumor-inhibiting action in vitro; assay type: cell-based
[5] = solubility; assay type: physicochemical
[6] = stability in the solid state and as a solution; assay type: physicochemical; settings: pH range from 3 to 9, in particular from 5 to 8
[7] = test system: L 1210 leukemia cells; test: Soft-agar assay, 1-hour incubation (Hamburger and Salmon); assay type: cell-based; settings: Mus musculus, L1210; L 1210, 1-hour incubation; 4 experiments, deviation less than 15%
Method: as §2
In the test, the cells were incubated at 37° C. for 1 hour at various concentrations of the test substance. The cells were then washed twice with McCoy 5A solution (Flow catalog, Meckenheim, FRG) and subsequently applied to agar plates in accordance with the method of Hamburger and Salmon. The cells were subsequently cultivated as described above, and the number of cell colonies was determined (evaluation as in a).
as §3, §1

Compound | IC50 [1] [µg/mL] | IC50 [2] [µg/mL] | antibacterial action [3] | tumor-inhibiting action [4] | solubility ([5]; methanol, acetone, DMSO, dioxane and chloroform) | solubility ([5]; water and alkanes) | stability [6] | IC50 [7] [µg/mL]
CC1OC(OC2CC(c3ccc4c(c3O)C(=O)C3=C(C4=O)C4(OC5CCC(O)C(C)O5)C(=O)CC(C)(O)CC4(O)C=C3)OC(C)C2O)CCC1O (stereo not shown) [Urdamycin G] | 3.5 (≈ 4.9 µM) | 0.85 (≈ 1.19 µM) | comes into effect both against Gram-positive and Gram-negative bacteria | tumor-inhibiting action | readily soluble | not in water and alkanes | stable | –
CC(=O)Oc1c(C2CC(OC3CCC(OC(C)=O)C(C)O3)C(OC(C)=O)C(C)O2)ccc2c1C(=O)C1=C(C2=O)C2(OC3CCC(OC(C)=O)C(C)O3)C(=O)CC(C)(O)CC2(O)C=C1 (stereo not shown) [5',4A,4C,8-Tetra-O-acetyl-urdamycin G, 5',4A,4C,8-tetra-O-acetyl urdamycin G] | < 1 | 0.036 (≈ 0.0408 µM) | – | – | – | – | – | 0.065 (≈ 0.0736 µM)
